These are literature values, as cited in patent US7390502B2, “SN-38 lipid complexes and their methods of use” (NeoPharm, Inc., priority 2000, dated 2008).

Series [1] deals with topoisomerase I purified from human and rodent tumor cell lines. As to conditions: versus irinotecan; enzyme purified from human and rodent tumor cell lines.
The conditions of series [2]: tends to precipitate into aqueous phase.
The conditions of series [3]: versus irinotecan.
For series [4] the following is noted: aqueous solutions / water.

Consider `CCc1c2c(nc3ccc(O)cc13)-c1cc3c(c(=O)n1C2)COC(=O)[C@]3(O)CC` [SN-38, 7-ethyl-10-hydroxycamptothecin], for which the “potency relative to irinotecan as an inhibitor of topoisomerase I” value in series [1] was “approximately 1000 times”. For the same molecule, the “affinity for lipid membranes” value in series [2] is recorded as “low affinity”. Further, the “potency relative to irinotecan in in vitro cytotoxicity assays” value in series [3] was “up to 2,000 fold”. Moreover, the “solubility in aqueous solutions” value in series [4] is reported as “exceedingly insoluble”.
